Patent US9545386B2, “Methods of treating infectious diseases” (SLIPPERY ROCK UNIVERSITY FOUNDATION, INC., priority 2007, dated 2017)

Key:
H. contortus = conditions: background statement; cited from earlier work
P. trichosuri = conditions: doramectin 0.6 mg/kg, in vivo, p<0.05, Ralston et al. (2001); cited from earlier work
[1] = system: Haemonchus contortus infective larvae; test: In vitro bioassay of infective larvae, immobilization and lethal doses (eosin, Probit); format: cell-based; conditions: H. contortus infective larvae; for 48 hr ID50 ± 95% confidence intervals: immobilize 50%; for 48 hr ID50 ± 95% confidence intervals / 48 hr ID90 ± 95% confidence intervals / 48 hr LD50 ± 95% confidence intervals / 48 hr LD90 ± 95% confidence intervals: 48 hr in vitro; for 48 hr ID90 ± 95% confidence intervals: immobilize 90%; for 48 hr LD50 ± 95% confidence intervals: kill 50%; for 48 hr LD90 ± 95% confidence intervals: kill 90%
Procedure: (§1) Strongyloides stercoralis infective larvae were harvested from charcoal coprocultures in nematode saline solution. The larvae were supplied by the Parasitology Laboratory, Department of Pathobiology, University of Pennsylvania. The strain of larvae was a human strain of the parasitic nematode that had been maintained for over ten years in canines by daily prednisolone treatment (2 mg/kg per os, once daily. Parastrongyloides trichosuri and Ancylostoma caninum infective larvae were also supplied by the same source as for S. stercoralis. Haemonchus contortus infective larvae were harvested from charcoal coprocultures in nematode saline solution prepared from infected sheep feces obtained from Merck Parasites Laboratory.
(§2) The 24 hr 50% and 90% immobilization doses (ID50 and ID90), and 50% and 90% lethal doses (LD50 and LD90) of eryngial (mg/ml) were investigated in vitro using infective larvae of all four parasitic nematodes. Each species was exposed to a range of eryngial dilutions by adding known volumes of a homogeneous ‘wormy’ solution (infective larvae in nematode saline solution) to known volumes of an eryngial stock suspension (10 mg/ml of nematode saline solution). Each dilution, including the control (0 mg/ml eryngial), was prepared in triplicate and also contained eosin (0.01%, w/v), which was used as an indicator of mortality, and Triton X-100 (1.0%, v/v).
(§3) Using S. stercoralis, P. trichosuri, H. contortus and A. caninum infective larvae, eryngial dilutions, excluding the controls, ranged from 0.05 to 1.15 mg/ml; 0.01 to 1.0 mg/ml; 0.5 to 2.0 mg/ml; and 0.8 to 3.0 mg/ml, respectively. Sub-sample (10 μl) counts of larvae that were mobile, immobile but not stained and stained, were done at the start of each bioassay and at 24 hr intervals for two days. Each sub-sample contained approximately 50 infective larvae.
(§4) The 48-hr immobilization doses (ID50 and ID90) and lethal doses (LD50 and LD90) of eryngial and ivermectin also were investigated, using S. stercoralis and H. contortus infective larvae. Each bioassay was conducted as described hereinabove. Using S. stercoralis and H. contortus infective larvae, ivermectin dilutions (not including the controls) ranged from 0.03 to 0.3 mg/ml and from 0.009 to 0.1 mg/ml, respectively.
(§5) Probit analysis was used to determine 24 hr and 48 hr immobilization and lethal doses for eryngial and ivermectin, respectively.

[2] = system: Strongyloides stercoralis infective larvae; test: as above; format: cell-based; conditions: S. stercoralis infective larvae, 48 hr in vitro; for 48 hr ID50 ± 95% confidence intervals: immobilize 50%; for 48 hr ID90 ± 95% confidence intervals: immobilize 90%; for 48 hr LD50 ± 95% confidence intervals: kill 50%; for 48 hr LD90 ± 95% confidence intervals: kill 90%
Procedure: as §1, §2, §3, §4, §5

[3] = system: A. canimun life-cycle stages; conditions: in vitro, Wang et al. (1989), cited from earlier work
A. caninum = conditions: in vivo; cited from earlier work

c1ccc(C2CN3CCSC3=N2)cc1 (stereo not shown) [tetramisole]
efficacy rates against H. contortus infections (H. contortus): 100%

CCCSc1ccc2nc(NC(=O)OC)[nH]c2c1 [Albendazole, albendazole]
efficacy rates against H. contortus infections (H. contortus): 100%

CO[C@H]1C[C@H](O[C@H]2[C@H](C)O[C@@H](O[C@@H]3/C(C)=C/C[C@@H]4C[C@@H](C[C@]5(C=C[C@H](C)[C@@H](C6CCCCC6)O5)O4)OC(=O)[C@@H]4C=C(C)[C@@H](O)[C@H]5OC/C(=C\C=C\[C@@H]3C)[C@]54O)C[C@@H]2OC)O[C@@H](C)[C@@H]1O [doramectin]
reduction of P. trichosuri infection in possums (P. trichosuri): 99%

ivermectin [reference compound]
48 hr ID50 ± 95% confidence intervals [1]: 0.011 (0.001-0.022) mg/ml
48 hr ID50 ± 95% confidence intervals ([1]; listed as ivermectin): 0.011 mg/mL
48 hr ID90 ± 95% confidence intervals [1]: 0.059 (0.043-0.092) mg/ml
48 hr ID90 ± 95% confidence intervals ([1]; listed as ivermectin): 0.059 mg/mL
times greater in potency than eryngial (48 hr ID90) ([1]; ivermectin vs eryngial): 12.9 times
times more effective than eryngial at immobilizing (48 hr ID50) ([1]; ivermectin vs eryngial): 28.5 times
48 hr LD50 ± 95% confidence intervals [1]: 4.990 (4.572-5.954) mg/ml
48 hr LD50 ± 95% confidence intervals ([1]; listed as ivermectin): 4.990 mg/mL
48 hr LD90 ± 95% confidence intervals [1]: 6.949 (5.858-10.10) mg/ml
48 hr LD90 ± 95% confidence intervals ([1]; listed as ivermectin): 6.949 mg/mL
48 hr ID50 ± 95% confidence intervals [2]: 0.136 (0.114-0.157) mg/ml
48 hr ID50 ± 95% confidence intervals ([2]; listed as ivermectin): 0.136 mg/mL
48 hr ID90 ± 95% confidence intervals [2]: 0.297 (0.251-0.377) mg/ml
48 hr ID90 ± 95% confidence intervals ([2]; listed as ivermectin): 0.297 mg/mL
48 hr LD50 ± 95% confidence intervals [2]: 0.306 (0.203-0.442) mg/ml
48 hr LD50 ± 95% confidence intervals ([2]; listed as ivermectin): 0.306 mg/mL
48 hr LD90 ± 95% confidence intervals [2]: 1.038 (0.665-2.498) mg/ml
48 hr LD90 ± 95% confidence intervals ([2]; listed as ivermectin): 1.038 mg/mL
dose that killed L3 larvae ([3]; A. caninum L3 larvae): 2.5 mg/mL
dose that killed adult worms ([3]; A. caninum adult worms): 560 mg/mL
dose detrimental to eggs inside the uterine tissue of female worms ([3]; A. caninum eggs): 1000 mg/mL
effectiveness in infected dogs (A. caninum): clearing the infection completely
